These are literature values, as cited in patent publication US20240166770A1, “COMPOSITIONS AND METHODS FOR INHIBITION OF CELL-PENETRATING ANTIBODIES” (Yale University, priority 2019, published 2024).

Like-named read-outs stand apart in the source and are kept apart here.

Data set [1] addresses T1, ENT2 (Homo sapiens, UniProt Q14542).
T1 sequence (Q14542 1-456): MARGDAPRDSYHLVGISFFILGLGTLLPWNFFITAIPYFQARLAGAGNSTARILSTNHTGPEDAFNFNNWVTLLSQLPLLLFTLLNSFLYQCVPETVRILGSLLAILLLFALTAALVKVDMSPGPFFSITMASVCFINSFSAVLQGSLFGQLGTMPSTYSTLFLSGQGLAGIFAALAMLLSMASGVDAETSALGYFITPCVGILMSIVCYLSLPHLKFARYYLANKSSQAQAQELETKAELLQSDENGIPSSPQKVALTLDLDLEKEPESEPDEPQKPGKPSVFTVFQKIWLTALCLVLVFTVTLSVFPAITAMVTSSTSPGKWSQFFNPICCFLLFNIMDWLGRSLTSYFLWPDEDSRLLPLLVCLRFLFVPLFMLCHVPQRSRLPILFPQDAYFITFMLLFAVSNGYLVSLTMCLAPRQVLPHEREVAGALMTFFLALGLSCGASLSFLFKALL
Particulars: cited from earlier work.

The target of data set [2] is T2, hENT4 (Homo sapiens, UniProt Q7RTT9).
T2 sequence (Q7RTT9 1-530): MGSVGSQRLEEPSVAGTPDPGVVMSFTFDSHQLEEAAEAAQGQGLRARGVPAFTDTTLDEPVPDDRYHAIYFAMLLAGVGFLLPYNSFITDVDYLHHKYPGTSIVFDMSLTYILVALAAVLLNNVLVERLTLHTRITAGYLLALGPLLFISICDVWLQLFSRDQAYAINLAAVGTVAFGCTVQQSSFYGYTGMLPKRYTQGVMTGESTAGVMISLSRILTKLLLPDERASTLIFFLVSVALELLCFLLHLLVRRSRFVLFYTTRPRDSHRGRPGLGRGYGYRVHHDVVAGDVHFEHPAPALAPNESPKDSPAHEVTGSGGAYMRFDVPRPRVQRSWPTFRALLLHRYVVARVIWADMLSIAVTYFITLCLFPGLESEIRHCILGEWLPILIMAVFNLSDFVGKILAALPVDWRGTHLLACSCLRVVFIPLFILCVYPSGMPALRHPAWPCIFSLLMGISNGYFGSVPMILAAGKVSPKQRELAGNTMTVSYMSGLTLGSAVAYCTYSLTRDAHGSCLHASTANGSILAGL
As to conditions: cited from earlier work.

Where [3] appears, read: Table 2, opening chain analogues.
Where [4] appears, read: Table 3, free hydrogen on the nitrogen of 4- and 8-position substituents.
Setting [5] is: Table 4, modification at hydroxyl groups of dipyridamole.
Where [6] appears, read: Table 1, different ring systems at the 4- and 8-positions.

Turning to `CCCCN(CCCC)c1nc(N(CCO)CCO)nc2c(N(CCCC)CCCC)nc(N(CCO)CCO)nc12` [compound 27], the IC50 in data set [1] (setting [3]) is 3310 nM; in data set [2] (setting [3]) it was 2960 nM.

Take `OCCN(CCO)c1nc(NC2CCC2)c2nc(N(CCO)CCO)nc(NC3CCC3)c2n1` [compound 62]: the IC50 in data set [1] (setting [4]) is 727 nM; in data set [2] (setting [4]), 15700 nM. For `CCCOCCN(CCOCCC)c1nc(N2CCCCC2)c2nc(N(CCOCCC)CCOCCC)nc(N3CCCCC3)c2n1` [compound 78], the half-inhibitory concentration (IC50) in data set [2] (setting [5]) was 140000 nM. For the compound `OCCN(CCO)c1nc(N(Cc2ccccc2)Cc2ccccc2)c2nc(N(CCO)CCO)nc(N(Cc3ccccc3)Cc3ccccc3)c2n1` [compound 37], in data set [2] (setting [3]), the IC50 was 68400 nM. For `CCN(CC)c1nc(N(CCO)CCO)nc2c(N(CC)CC)nc(N(CCO)CCO)nc12` [compound 23], the IC50 in data set [1] (setting [3]) is 2930 nM; in data set [2] (setting [3]) it was 4120 nM. Consider `OCCOc1nc(N2CCCCC2)c2nc(OCCO)nc(N3CCCCC3)c2n1` [compound 72], for which, in data set [1] (setting [5]), the IC50 is 1780 nM. `CC(C)(C)Nc1nc(N(CCO)CCO)nc2c(NC(C)(C)C)nc(N(CCO)CCO)nc12` [compound 52]: the IC50 in data set [2] (setting [4]) was 767 nM. As to `OCCN(CCO)c1nc(N2CCCCCCCC2)c2nc(N(CCO)CCO)nc(N3CCCCCCCC3)c2n1` [compound 15], the results for the IC50 in data set [1] (setting [6]) and in data set [2] (setting [6]) were 2350 nM and 1320 nM, respectively. In the case of `OCCN(CCO)c1nc(N2CCOCC2)c2nc(N(CCO)CCO)nc(N3CCOCC3)c2n1` [compound 4], in data set [1] (setting [6]), the IC50 was 4120 nM. Regarding `CCCCCN(CCCCC)c1nc(N(CCO)CCO)nc2c(N(CCCCC)CCCCC)nc(N(CCO)CCO)nc12` [compound 31], the IC50 in data set [2] (setting [3]) was 45700 nM. Regarding `OCCN(CCO)c1nc(NC2CCCCC2)c2nc(N(CCO)CCO)nc(NC3CCCCC3)c2n1` [compound 66], the IC50 in data set [2] (setting [4]) is 124000 nM. On to `OCCN(CCO)c1nc(N2CCCCCC2)c2nc(N(CCO)CCO)nc(N3CCCCCC3)c2n1` [compound 11], for which the 50% inhibitory concentration (IC50) is 117 nM in data set [1] (setting [6]) and 379 nM in data set [2] (setting [6]). Take `CCCCCNc1nc(N(CCO)CCO)nc2c(NCCCCC)nc(N(CCO)CCO)nc12` [compound 54]: the results for the IC50 in data set [1] (setting [4]) and in data set [2] (setting [4]) were 4790 nM and 603 nM, respectively. For the compound `OCCN(CCO)c1nc(NC2CCCC2)c2nc(N(CCO)CCO)nc(NC3CCCC3)c2n1` [compound 64], the IC50 is 1320 nM in data set [1] (setting [4]) and 12200 nM in data set [2] (setting [4]). As to `OCCN(CCO)c1nc(N2C3CCCC2CC3)c2nc(N(CCO)CCO)nc(N3C4CCCC3CC4)c2n1` [compound 17], in data set [1] (setting [6]), the IC50 was 323 nM.

On to `CCCNc1nc(N(CCO)CCO)nc2c(NCCC)nc(N(CCO)CCO)nc12` [compound 44], for which the IC50 in data set [1] (setting [4]) was 3500 nM; in data set [2] (setting [4]) it was 16400 nM.

For the compound `CC(C)CCNc1nc(N(CCO)CCO)nc2c(NCCC(C)C)nc(N(CCO)CCO)nc12` [compound 56], the results for the concentration for half-maximal inhibition (IC50) in data set [1] (setting [4]) and in data set [2] (setting [4]) were 1950 nM and 495 nM, respectively.

In the case of `OCCN(CCO)c1nc(N2CCCC2)c2nc(N(CCO)CCO)nc(N3CCCC3)c2n1` [compound 2], in data set [1] (setting [6]), the IC50 is 556 nM. Consider `OCCNc1nc(N2CCCCC2)c2nc(NCCO)nc(N3CCCCC3)c2n1` [compound 1], for which the values for the IC50 in data set [1] (setting [6]) and in data set [2] (setting [6]) were 7440 nM and 2200 nM, respectively. Regarding `CCCCNc1nc(N(CCO)CCO)nc2c(NCCCC)nc(N(CCO)CCO)nc12` [compound 48], the values for the IC50 in data set [1] (setting [4]) and in data set [2] (setting [4]) were 2850 nM and 1880 nM, respectively. Consider `COCCN(CCOC)c1nc(N2CCCCC2)c2nc(N(CCOC)CCOC)nc(N3CCCCC3)c2n1` [compound 76], for which the results for the half-inhibitory concentration (IC50) in data set [1] (setting [5]) and in data set [2] (setting [5]) were 1470 nM and 1820 nM, respectively. In the case of `OCCN(CCO)c1nc(NC2CC2)c2nc(N(CCO)CCO)nc(NC3CC3)c2n1` [compound 60], the IC50 in data set [1] (setting [4]) is 2710 nM; in data set [2] (setting [4]), 37600 nM.

Take `OCCNc1nc(N2CCCCCCC2)c2nc(NCCO)nc(N3CCCCCCC3)c2n1` [compound 14]: the results for the IC50 in data set [1] (setting [6]) and in data set [2] (setting [6]) were 5200 nM and 181 nM, respectively. Turning to `OCCNc1nc(NCc2ccccc2)c2nc(NCCO)nc(NCc3ccccc3)c2n1` [compound 71], the 50% inhibitory concentration (IC50) in data set [2] (setting [4]) is 1760 nM.

`CC(C)CCN(CCC(C)C)c1nc(N(CCO)CCO)nc2c(N(CCC(C)C)CCC(C)C)nc(N(CCO)CCO)nc12` [compound 33]: the IC50 in data set [2] (setting [3]) is 44200 nM.
